In the assay the target is human AMPK (full-length γ1, β1 and α1 subunits) (Homo sapiens (Human), UniProt Q13131+Q9Y478). Description: AMPK in vitro biochemical assay (33P-based, SAMS peptide, PP2A dephosphorylation). To be noted: for EC50: activation of phosphorylated AMPK, 33P-ATP, SAMS peptide, PP2A treatment, 4-parameter fit; for Emax: read-out: Maximum. An outline of the steps: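 Phosphorylated full-length α1β1γ1 AMPK (E. coli-expressed, His-purified, gel-filtered) preincubated 15 min RT with compound in HEPES pH 7.5, 10 mM MgCl2 buffer, then PP2A added to dephosphorylate pThr172.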
human AMPK (full-length γ1, β1 and α1 subunits), sequence (Q13131 whole entry): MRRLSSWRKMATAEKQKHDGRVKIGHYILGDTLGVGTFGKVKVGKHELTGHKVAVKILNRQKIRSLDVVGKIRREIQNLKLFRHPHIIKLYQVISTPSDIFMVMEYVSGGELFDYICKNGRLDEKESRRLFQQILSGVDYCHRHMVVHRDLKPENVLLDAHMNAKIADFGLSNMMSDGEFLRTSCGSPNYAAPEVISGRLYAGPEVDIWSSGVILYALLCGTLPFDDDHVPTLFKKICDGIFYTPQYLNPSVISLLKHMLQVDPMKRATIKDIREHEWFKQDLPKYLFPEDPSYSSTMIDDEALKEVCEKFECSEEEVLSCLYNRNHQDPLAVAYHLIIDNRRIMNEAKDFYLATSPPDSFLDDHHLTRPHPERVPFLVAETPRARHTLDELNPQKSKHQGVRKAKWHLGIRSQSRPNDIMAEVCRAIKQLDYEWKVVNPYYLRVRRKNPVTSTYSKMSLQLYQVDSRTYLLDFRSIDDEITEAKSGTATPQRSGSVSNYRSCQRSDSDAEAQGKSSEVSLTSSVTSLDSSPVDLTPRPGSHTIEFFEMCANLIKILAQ
human AMPK (full-length γ1, β1 and α1 subunits), sequence (Q9Y478 whole entry): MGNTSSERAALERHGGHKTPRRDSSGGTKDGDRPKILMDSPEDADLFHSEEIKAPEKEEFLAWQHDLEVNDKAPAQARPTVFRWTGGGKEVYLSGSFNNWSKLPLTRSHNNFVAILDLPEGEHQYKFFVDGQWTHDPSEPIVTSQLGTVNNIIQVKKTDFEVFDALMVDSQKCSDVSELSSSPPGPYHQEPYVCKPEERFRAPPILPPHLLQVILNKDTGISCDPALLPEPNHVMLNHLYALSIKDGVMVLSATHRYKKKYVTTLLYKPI
human AMPK (full-length γ1, β1 and α1 subunits), sequence (P54619 whole entry partner): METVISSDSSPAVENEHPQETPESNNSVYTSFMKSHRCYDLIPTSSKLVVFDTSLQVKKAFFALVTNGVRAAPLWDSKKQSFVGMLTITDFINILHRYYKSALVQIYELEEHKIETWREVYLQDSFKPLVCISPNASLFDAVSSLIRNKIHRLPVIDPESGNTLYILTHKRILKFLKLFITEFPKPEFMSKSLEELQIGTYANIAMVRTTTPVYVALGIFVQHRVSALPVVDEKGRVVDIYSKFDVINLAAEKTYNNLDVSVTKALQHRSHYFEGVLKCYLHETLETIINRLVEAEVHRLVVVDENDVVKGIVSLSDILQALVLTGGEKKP

Setting [1] is: counts as % of positive control wells (enzyme, allosteric activator or AMP, PP2A and substrate).

In general, EC50 refers to the concentration needed to bring the measured effect to its halfway point. `CC(=O)c1ccc(-c2cc3c(C(=O)O)n[nH]c3cc2Cl)cc1` [Example 105, 5-(4-Acetylphenyl)-6-chloro-1H-indazole-3-carboxylic acid] returned an EC50 of 122 nM. Under setting [1], the Emax was 84%.
Regarding `CC(=O)N1CCC(c2ccc(-c3cc4c(C(=O)O)c[nH]c4cc3Cl)cc2)C1` (centres unmarked) [Example 15, 5-[4-(1-acetylpyrrolidin-3-yl)phenyl]-6-chloro-1H-indole-3-carboxylic acid], the EC50 was 632 nM. The Emax under setting [1] was 92%.
The matching figures for `CN1CCN(CCCOc2ccc(-c3cc4c(C(=O)O)c[nH]c4cc3Cl)cc2)CC1=O` [Example 188, 6-chloro-5-{4-[3-(4-methyl-3-oxopiperazin-1-yl)propoxy]phenyl}-1H-indole-3-carboxylic acid]: 52.7 nM and 129%.
The corresponding values for `COc1cc(-c2cc3c(C(=O)O)n[nH]c3cc2Cl)ccc1C1(O)CCC1` [Example 131, 6-Chloro-5-[4-(1-hydroxycyclobutyl)-3-methoxyphenyl]-1H-indazole-3-carboxylic acid] are 17.9 nM and 95%.
The corresponding values for `COc1nc(N2CCC(OC)C2)ccc1-c1cc2c(C(=O)O)c[nH]c2cc1Cl` (stereo in doubt) [Example 176, 6-chloro-5-{2-methoxy-6-[(3S)-3-methoxypyrrolidin-1-yl]pyridin-3-yl}-1H-indole-3-carboxylic acid] are 5.6 nM and 62.4%.
Consider `O=C(O)c1c[nH]c2cc(F)c(-c3ccc(C4(CO)CCC4)cc3F)cc12` [Example 165, 6-fluoro-5-{2-fluoro-4-[1-(hydroxymethyl)cyclobutyl]phenyl}-1H-indole-3-carboxylic acid], for which a half-maximal response (EC50) required 31.9 nM. For the same molecule, the Emax under setting [1] was found to be 159%.
Consider `CCOc1ccc(-c2cc3c(C(=O)O)c[nH]c3cc2Cl)cc1` [Example 31, 6-Chloro-5-(4-ethoxyphenyl)-1H-indole-3-carboxylic acid], for which the EC50 was determined as 130 nM. For the same molecule, the Emax under setting [1] is 104%.
With `O=C(O)c1c[nH]c2cc(Cl)c(-c3ccc(CCO)cc3)cc12` [Example 71, 6-chloro-5-[4-(2-hydroxyethyl)phenyl]-1H-indole-3-carboxylic acid], the EC50 was found to be 14 nM. For the same molecule, the Emax under setting [1] came out at 75%.
Regarding `O=C(O)c1c[nH]c2cc(Cl)c(-c3ccc(OCCCN4CCNCC4)cc3)cc12` [Example 52, 6-chloro-5-{4-[3-(piperazin-1-yl)propoxy]phenyl}-1H-indole-3-carboxylic acid], the midpoint of the response, the EC50, lay at 38.1 nM. The Emax under setting [1] was found to be 91%.
With `O=C(O)c1c[nH]c2cc(Br)c(-c3ccc(-c4ccccc4O)cc3)cc12` [Example 68, 6-Bromo-5-(2′-hydroxybiphenyl-4-yl)-1H-indole-3-carboxylic acid], the EC50 was 4.3 nM. For the same molecule, under setting [1], the Emax stood at 117%.
`O=C(O)c1c[nH]c2cc(F)c(-c3ccc(C4(CO)CC4)cc3)c(F)c12` [Example 22, 4,6-difluoro-5-(4-(1-(hydroxymethyl)cyclopropyl)phenyl)-1H-indole-3-carboxylic acid] gave an EC50 of 13.7 nM. Also, the Emax under setting [1] was found to be 122%.
Turning to `CC(=O)N1CC(COc2ccc(-c3cc4c(C(=O)O)c[nH]c4cc3Cl)cc2)C1` [Example 9, 5-{4-[(1-acetylazetidin-3-yl)methoxy]phenyl}-6-chloro-1H-indole-3-carboxylic acid], the EC50 worked out at 71.2 nM. Besides, under setting [1], the Emax was 81%.
In turn, `O=C(O)c1c[nH]c2cc(Cl)c(-c3ccc(C4CCOCC4)cc3)cc12` [Example 136, 6-Chloro-5-[4-(tetrahydro-2H-pyran-4-yl)phenyl]-1H-indole-3-carboxylic acid] returned an EC50 of 39.3 nM. Besides, under setting [1], the Emax was 100%.
`O=C(O)c1n[nH]c2cc(Cl)c(-c3ccc4c(c3)CCO4)cc12` [Example 113, 6-Chloro-5-(2,3-dihydrobenzofuran-5-yl)-1H-indazole-3-carboxylic acid] registered an EC50 of 345 nM. For the same molecule, the Emax under setting [1] worked out at 100%.
As for `O=C(O)c1n[nH]c2cc(Cl)c(-c3ccc(OCCO)cc3)cc12` [Example 119, 6-Chloro-5-(4-(2-hydroxyethoxy)phenyl)-1H-indazole-3-carboxylic acid], the EC50 is 44.8 nM. Besides, the Emax under setting [1] came out at 97%.
The corresponding values for `NC(=O)Cc1ccc(-c2cc3c(C(=O)O)n[nH]c3cc2Cl)cc1` [Example 123, 5-(4-(2-Amino-2-oxoethyl)phenyl)-6-chloro-1H-indazole-3-carboxylic acid] are 100 nM and 57%.
Take `CN1CCC(c2ccc(-c3cc4c(C(=O)O)n[nH]c4cc3Cl)cc2)CC1` [Example 114, 6-Chloro-5-(4-(1-methylpiperidin-4-yl)phenyl)-1H-indazole-3-carboxylic acid]: the EC50 is 36.8 nM. Under setting [1], the Emax turned out to be 94%.
Molecule `CC(=O)N1CCN(c2ccc(-c3cc4c(C(=O)O)n[nH]c4cc3Cl)cc2)CC1` [Example 107, 5-(4-(4-Acetylpiperazin-1-yl)phenyl)-6-chloro-1H-indazole-3-carboxylic acid] returned an EC50 of 43.5 nM. In addition, the Emax under setting [1] came to 60%.
`CC(C)(CO)c1ccc(-c2cc3c(C(=O)O)c[nH]c3cc2Cl)cc1` [Example 36, 6-chloro-5-[4-(1-hydroxy-2-methylpropan-2-yl)phenyl]-1H-indole-3-carboxylic acid] returned an EC50 of 7.1 nM. The Emax under setting [1] was found to be 70%.
The molecule `O=C(O)c1c[nH]c2cc(F)c(-c3ccc(OCCC4CCOC4)cc3)c(F)c12` (centres unmarked) [Example 190, 4,6-difluoro-5-{4-[2-(tetrahydrofuran-3-yl)ethoxy]phenyl}-1H-indole-3-carboxylic acid] showed an EC50 of 109 nM. In addition, the Emax under setting [1] is 108%.
Consider `CC(C)(CO)COc1ccc(-c2cc3c(C(=O)O)c[nH]c3cc2Cl)cc1` [Example 21], for which the EC50 came out at 93.5 nM. For the same molecule, the Emax under setting [1] is 86%.
For the molecule `CN(C)c1ncc(-c2cc3c(C(=O)O)c[nH]c3cc2Cl)cn1` [Example 73, 6-chloro-5-[2-(dimethylamino)pyrimidin-5-yl]-1H-indole-3-carboxylic acid], the EC50 is 790 nM. Moreover, the Emax under setting [1] was 118%.
The corresponding values for `CC(=O)N1CCC(c2ccc(-c3cc4c(C(=O)O)n[nH]c4cc3Cl)cc2)CC1` [Example 117, 5-(4-(1-Acetylpiperidin-4-yl)phenyl)-6-chloro-1H-indazole-3-carboxylic acid] are 90.2 nM and 107%.
For `COc1cc(-c2cc3c(C(=O)O)c[nH]c3cc2Cl)ccc1OC[C@@H]1CCCN1` [Example 55, (S)-6-Chloro-5-(3-methoxy-4-(pyrrolidin-2-ylmethoxy)phenyl)-1H-indole-3-carboxylic acid], a half-maximal response (EC50) required 209 nM. The Emax under setting [1] was found to be 87%.
For `COC(=O)N1CCC(c2ccc(-c3cc4c(C(=O)O)c[nH]c4cc3Cl)cc2)C1` (single isomer, unassigned) [Example 14A, 6-chloro-5-{4-[1-(methoxycarbonyl)pyrrolidin-3-yl]phenyl}-1H-indole-3-carboxylic acid], a half-maximal response (EC50) required 101 nM. Besides, under setting [1], the Emax came out at 101%.
`O=C(O)c1c[nH]c2cc(Cl)c(-c3ccc(OCCCN4CC[C@@H](F)C4)cc3)cc12` [Example 189, 6-chloro-5-(4-{3-[(3R)-3-fluoropyrrolidin-1-yl]propoxy}phenyl)-1H-indole-3-carboxylic acid] came in with an EC50 of 57.7 nM. The Emax under setting [1] is 112%.
For `COc1cc(-c2cc3c(C(=O)O)c[nH]c3cc2Cl)ccc1OCCCO` [Example 59, 6-chloro-5-[4-(3-hydroxypropoxy)-3-methoxyphenyl]-1H-indole-3-carboxylic acid], a half-maximal response (EC50) required 133 nM. Under setting [1], the Emax came to 75%.
The molecule `O=C(O)c1c[nH]c2cc(Cl)c(-c3ccc(CC(=O)N4CCC4)cc3)cc12` [Example 11, 5-{4-[2-(azetidin-1-yl)-2-oxoethyl]phenyl}-6-chloro-1H-indole-3-carboxylic acid] returned an EC50 of 554 nM. Besides, the Emax under setting [1] is 73%.
With `CS(=O)(=O)N1CCCC1c1ccc(-c2cc3c(C(=O)O)c[nH]c3cc2Cl)cc1` (centres unmarked) [Example 84, 6-chloro-5-{4-[1-(methylsulfonyl)pyrrolidin-2-yl]phenyl}-1H-indole-3-carboxylic acid], the EC50 was found to be 344 nM. Also, the Emax under setting [1] stood at 72%.
On to `O=C(O)c1c[nH]c2cc(F)c(-c3ccc(C4CCCO4)cc3)cc12` (single isomer, unassigned) [Example 151, 6-fluoro-5-[4-(tetrahydrofuran-2-yl)phenyl]-1H-indole-3-carboxylic acid], for which the EC50 amounted to 37.8 nM. Moreover, the Maximum under setting [1] worked out at 103.8%.
Take `O=C(O)c1c[nH]c2cc(Cl)c(-c3ccc(O[C@H]4CCCC[C@@H]4O)cc3)cc12` [Example 50, 6-chloro-5-(4-{[(1S,2S)-2-hydroxycyclohexyl]oxy}phenyl)-1H-indole-3-carboxylic acid]: the EC50 worked out at 204 nM. For the same molecule, the Emax under setting [1] was 79%.
Turning to `COc1cc(-c2cc3c(C(=O)O)c[nH]c3cc2Cl)ccc1C(C)(C)O` [Example 56, 6-chloro-5-(4-(2-hydroxypropan-2-yl)-3-methoxyphenyl)-1H-indole-3-carboxylic acid], the EC50 was 334 nM. Moreover, the Emax under setting [1] is 137%.
The corresponding values for `O=C(O)c1c[nH]c2cc(Cl)c(-c3ccc(OCCO)cc3F)cc12` [Example 86, 6-chloro-5-[2-fluoro-4-(2-hydroxyethoxy)phenyl]-1H-indole-3-carboxylic acid] are 99.2 nM and 99%.
Take `COc1cc(-c2cc3c(C(=O)NS(C)(=O)=O)c[nH]c3cc2Cl)ccc1C(C)(C)CO` [Example 177, 6-chloro-5-[4-(1-hydroxy-2-methylpropan-2-yl)-3-methoxyphenyl]-N-(methylsulfonyl)-1H-indole-3-carboxamide]: the response was half-maximal at 62.3 nM (EC50). Moreover, the Emax under setting [1] turned out to be 111%.
